Results published in ChEMBL document CHEMBL5465560, “Selectivity Literature for EUbOPEN Chemogenomic Library” (2024).
Values belong to the molecule of their own block, whether it stands above or below them.

What was measured:
[1] = target: Rho-associated protein kinase 2 (Homo sapiens, UniProt O75116); assay: Selectivity interaction (Kinase panel (literature)) EUB0001199aCl ROCK2; settings: at 1 µM
[2] = target: T1, Serine/threonine-protein kinase TAO2 (Homo sapiens) (UniProt Q9UL54); assay: Selectivity interaction (Kinase panel (KiNativ target engagement assay in Jurkat cells)) EUB0001635a TAOK2; type: cell-based; settings: Selectivity number of off-targets 0.0, Selectivity number of targets 233.0, Source Knowledge https://www.sciencedirect.com/science/article/pii/S2451945619300674?via%3Dihub, at 1 µM
T1 sequence (whole entry): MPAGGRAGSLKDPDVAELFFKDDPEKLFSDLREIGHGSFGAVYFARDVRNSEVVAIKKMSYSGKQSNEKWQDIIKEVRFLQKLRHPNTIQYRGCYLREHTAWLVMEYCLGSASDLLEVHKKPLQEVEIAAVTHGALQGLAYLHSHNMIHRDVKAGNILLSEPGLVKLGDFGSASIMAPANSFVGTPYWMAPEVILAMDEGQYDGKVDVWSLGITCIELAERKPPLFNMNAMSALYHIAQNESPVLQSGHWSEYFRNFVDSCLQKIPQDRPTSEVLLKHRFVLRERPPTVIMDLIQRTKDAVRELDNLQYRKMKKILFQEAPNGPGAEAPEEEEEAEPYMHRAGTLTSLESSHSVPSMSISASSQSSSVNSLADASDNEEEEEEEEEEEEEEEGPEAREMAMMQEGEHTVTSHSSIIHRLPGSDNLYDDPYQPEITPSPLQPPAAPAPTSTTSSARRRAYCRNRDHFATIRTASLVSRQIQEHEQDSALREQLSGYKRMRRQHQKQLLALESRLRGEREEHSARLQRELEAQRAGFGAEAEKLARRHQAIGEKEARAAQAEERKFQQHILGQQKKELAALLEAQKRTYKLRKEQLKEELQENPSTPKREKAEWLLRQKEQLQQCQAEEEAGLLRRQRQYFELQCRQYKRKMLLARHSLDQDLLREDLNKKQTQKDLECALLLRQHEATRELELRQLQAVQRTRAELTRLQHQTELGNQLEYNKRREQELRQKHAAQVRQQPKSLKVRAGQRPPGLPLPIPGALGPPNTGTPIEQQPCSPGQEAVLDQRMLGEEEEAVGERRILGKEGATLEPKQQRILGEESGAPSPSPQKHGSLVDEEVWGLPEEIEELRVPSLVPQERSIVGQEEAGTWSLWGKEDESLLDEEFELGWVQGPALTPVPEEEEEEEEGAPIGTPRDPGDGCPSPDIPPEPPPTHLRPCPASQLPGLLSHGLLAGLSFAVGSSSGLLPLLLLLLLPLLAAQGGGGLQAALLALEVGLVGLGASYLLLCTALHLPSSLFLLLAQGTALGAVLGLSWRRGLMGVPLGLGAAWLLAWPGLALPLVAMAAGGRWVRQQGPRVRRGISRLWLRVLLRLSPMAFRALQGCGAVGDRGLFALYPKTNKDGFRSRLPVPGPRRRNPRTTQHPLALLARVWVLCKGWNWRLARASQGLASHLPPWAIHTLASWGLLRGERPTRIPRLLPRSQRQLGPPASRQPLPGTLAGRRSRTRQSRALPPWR

[3] = target: T2, Beta-adrenergic receptor kinase 1 (Homo sapiens) (UniProt P25098); assay: Selectivity interaction (Kinase panel (KiNativ target engagement assay in Jurkat cells)) EUB0001635a ADRBK1; type: cell-based; settings: Selectivity number of off-targets 0.0, Selectivity number of targets 233.0, Source Knowledge https://www.sciencedirect.com/science/article/pii/S2451945619300674?via%3Dihub, at 1 µM
T2 sequence (whole entry): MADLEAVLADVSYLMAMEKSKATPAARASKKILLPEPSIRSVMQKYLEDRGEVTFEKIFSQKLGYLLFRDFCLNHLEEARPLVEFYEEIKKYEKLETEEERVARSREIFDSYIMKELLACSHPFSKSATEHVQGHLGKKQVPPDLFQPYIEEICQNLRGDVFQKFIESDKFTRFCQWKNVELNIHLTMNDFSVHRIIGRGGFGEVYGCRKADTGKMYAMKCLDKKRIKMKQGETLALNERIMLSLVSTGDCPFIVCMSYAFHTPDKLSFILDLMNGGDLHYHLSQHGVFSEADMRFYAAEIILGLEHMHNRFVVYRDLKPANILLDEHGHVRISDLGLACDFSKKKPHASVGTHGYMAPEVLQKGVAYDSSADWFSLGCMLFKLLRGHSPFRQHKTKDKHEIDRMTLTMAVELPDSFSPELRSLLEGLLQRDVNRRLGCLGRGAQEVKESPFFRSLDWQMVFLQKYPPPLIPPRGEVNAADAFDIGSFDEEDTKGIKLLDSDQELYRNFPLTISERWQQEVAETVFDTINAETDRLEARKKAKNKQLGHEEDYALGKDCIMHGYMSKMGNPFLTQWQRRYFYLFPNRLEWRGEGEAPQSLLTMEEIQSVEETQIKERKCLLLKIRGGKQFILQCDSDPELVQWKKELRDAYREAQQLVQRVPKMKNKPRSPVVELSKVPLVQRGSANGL

[4] = target: T3, Protein kinase C epsilon type (Homo sapiens) (UniProt Q02156); assay: Selectivity interaction (KinomeScan (DiscoverX)) EUB0000618a PRKCE; settings: at 10 µM
T3 sequence (whole entry): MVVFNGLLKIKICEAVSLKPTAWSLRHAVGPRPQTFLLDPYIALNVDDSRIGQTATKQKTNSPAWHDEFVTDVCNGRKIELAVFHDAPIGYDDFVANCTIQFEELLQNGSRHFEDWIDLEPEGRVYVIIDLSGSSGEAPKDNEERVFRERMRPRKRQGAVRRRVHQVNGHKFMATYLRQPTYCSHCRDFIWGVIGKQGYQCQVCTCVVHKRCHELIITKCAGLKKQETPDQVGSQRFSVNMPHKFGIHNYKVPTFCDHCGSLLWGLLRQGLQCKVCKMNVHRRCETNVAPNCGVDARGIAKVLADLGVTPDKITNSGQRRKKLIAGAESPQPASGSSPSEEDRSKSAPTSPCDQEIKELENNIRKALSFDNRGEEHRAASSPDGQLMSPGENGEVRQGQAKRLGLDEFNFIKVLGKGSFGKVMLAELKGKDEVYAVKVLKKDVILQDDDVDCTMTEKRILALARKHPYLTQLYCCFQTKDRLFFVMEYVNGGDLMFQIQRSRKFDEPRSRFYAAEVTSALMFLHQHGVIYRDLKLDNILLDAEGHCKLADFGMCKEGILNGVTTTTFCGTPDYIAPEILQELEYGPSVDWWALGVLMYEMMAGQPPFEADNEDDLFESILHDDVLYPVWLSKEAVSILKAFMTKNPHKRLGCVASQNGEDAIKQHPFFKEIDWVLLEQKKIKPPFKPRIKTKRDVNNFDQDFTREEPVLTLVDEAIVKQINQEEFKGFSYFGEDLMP

Chain of Rho-associated protein kinase 2 (O75116 whole entry, looked up): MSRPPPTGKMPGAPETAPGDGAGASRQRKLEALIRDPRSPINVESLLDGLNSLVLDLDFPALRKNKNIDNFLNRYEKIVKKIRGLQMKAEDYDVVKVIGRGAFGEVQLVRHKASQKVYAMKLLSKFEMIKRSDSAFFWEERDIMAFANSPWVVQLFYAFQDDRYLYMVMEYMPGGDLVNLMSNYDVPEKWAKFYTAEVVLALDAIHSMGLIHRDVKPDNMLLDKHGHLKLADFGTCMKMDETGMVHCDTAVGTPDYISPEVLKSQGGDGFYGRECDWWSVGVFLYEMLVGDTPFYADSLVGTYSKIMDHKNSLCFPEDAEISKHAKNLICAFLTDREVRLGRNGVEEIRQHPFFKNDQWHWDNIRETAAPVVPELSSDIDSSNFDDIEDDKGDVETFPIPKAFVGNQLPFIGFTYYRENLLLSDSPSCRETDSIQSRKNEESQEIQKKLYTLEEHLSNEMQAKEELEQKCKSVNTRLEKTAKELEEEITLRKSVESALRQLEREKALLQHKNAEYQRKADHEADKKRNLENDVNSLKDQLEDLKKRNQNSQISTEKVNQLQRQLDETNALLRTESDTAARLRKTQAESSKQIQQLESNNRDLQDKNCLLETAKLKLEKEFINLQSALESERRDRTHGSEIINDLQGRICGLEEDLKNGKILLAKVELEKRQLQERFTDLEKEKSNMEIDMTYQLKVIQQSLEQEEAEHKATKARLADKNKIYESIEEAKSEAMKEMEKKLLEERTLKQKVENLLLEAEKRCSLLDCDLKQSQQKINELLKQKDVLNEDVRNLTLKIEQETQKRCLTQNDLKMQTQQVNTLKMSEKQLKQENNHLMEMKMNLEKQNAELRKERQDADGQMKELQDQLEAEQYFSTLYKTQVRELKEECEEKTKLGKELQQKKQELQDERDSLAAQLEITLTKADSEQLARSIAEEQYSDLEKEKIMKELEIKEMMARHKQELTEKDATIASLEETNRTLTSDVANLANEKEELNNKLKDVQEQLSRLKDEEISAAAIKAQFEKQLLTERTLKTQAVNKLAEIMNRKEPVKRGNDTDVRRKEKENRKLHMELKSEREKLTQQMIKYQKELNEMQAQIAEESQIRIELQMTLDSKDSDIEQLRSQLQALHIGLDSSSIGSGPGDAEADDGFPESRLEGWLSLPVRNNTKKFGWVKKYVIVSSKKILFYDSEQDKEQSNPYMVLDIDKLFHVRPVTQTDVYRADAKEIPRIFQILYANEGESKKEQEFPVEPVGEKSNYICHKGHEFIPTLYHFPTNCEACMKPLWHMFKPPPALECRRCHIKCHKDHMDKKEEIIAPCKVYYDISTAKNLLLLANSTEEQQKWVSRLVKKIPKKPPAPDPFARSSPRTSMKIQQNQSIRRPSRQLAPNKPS

% of inhibition [1]: 6%
SMILES: CN1Cc2nccc(-c3cn(C)nc3-c3ccc(F)cc3)c2C1=O

SMILES: C=CC(=O)Nc1ccc(C(=O)Nc2[nH]nc3c2CN(C(=O)N[C@H](CN(C)C)c2ccccc2)C3(C)C)cc1
% of engagement [2]: -12.9% | % of engagement [3]: -2.6%

SMILES: O[C@H]1CC[C@H](Nc2ncc3nc(Nc4c(F)cc(F)cc4F)n([C@H]4CCOC4)c3n2)CC1
% of control [4]: 98%
